In patent publication US20220089568A1 (Janssen Biotech, Inc., priority 2019, published 2022):

Tests used:
MOLM-13 cells = assay: MOLM-13 Cellular Assay; type: cell-based; conditions: Homo sapiens, 72 hours exposure, cell viability by CellTiter-Glo
Protocol: The day prior to assay set-up, cells were pelleted, resuspended in fresh media, counted, and cells were plated at 0.4×10^6 cell/mL in a T150 flask. […] Cells were exposed to different concentrations of test compounds at 37° C., 5% CO2 for 72 hours immediately after seeding.

human DHODH = biological target: T1, human DHODH (Homo sapiens, UniProt Q02127); assay: DHODH Enzymatic Assay; type: biochemical; conditions: purified human DHODH; DCIP absorbance, end-point mode
T1 construct: purchased Proteros PR-0044
Method in brief: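 Purified human DHODH activity read as absorbance of DCIP, the terminal electron acceptor, in […] pH 7.5, 150 mM NaCl, 0.5 mM EDTA, 0.1% Triton X-100. Reaction started with a substrate mix of 20 mM DHO, 5 mM CoQ6 and 1 mM DCIP in assay buffer.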

T1 sequence (Q02127 whole entry): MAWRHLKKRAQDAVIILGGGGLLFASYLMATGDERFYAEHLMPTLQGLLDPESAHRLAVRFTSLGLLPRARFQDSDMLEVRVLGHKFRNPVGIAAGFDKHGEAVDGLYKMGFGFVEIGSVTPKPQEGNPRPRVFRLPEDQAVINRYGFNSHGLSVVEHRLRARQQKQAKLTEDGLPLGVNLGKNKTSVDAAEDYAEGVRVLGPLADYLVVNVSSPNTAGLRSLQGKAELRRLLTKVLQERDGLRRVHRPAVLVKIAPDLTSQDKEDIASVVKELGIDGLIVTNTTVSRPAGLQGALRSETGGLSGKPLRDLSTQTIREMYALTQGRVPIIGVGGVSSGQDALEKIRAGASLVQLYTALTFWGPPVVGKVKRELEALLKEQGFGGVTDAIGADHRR

EC50 (MOLM-13 cells) [nM]	EC50 (human DHODH) [nM]	SMILES
0.792	2.9	CCn1c(CO)nn(-c2nc(O[C@@H](C)C(F)(F)F)c(C(=O)Nc3c(C)cc(OC)nc3Cl)cc2F)c1=O [Example 106, N-(2-Chloro-6-methoxy-4-methyl-3-pyridyl)-6-[4-ethyl-3-(hydroxymethyl)-5-oxo-1,2,4-triazol-1-yl]-5-fluoro-2-[(1S)-2,2,2-trifluoro-1-methyl-ethoxy]pyridine-3-carboxamide]
25	12.3	CCn1c(CO)nn(-c2nc(O[C@@H](C)C(F)(F)F)c(C(=O)Nc3cc(F)cnc3Cl)cc2F)c1=O [Example 78, N-(2-Chloro-5-fluoro-3-pyridyl)-6-[4-ethyl-3-(hydroxymethyl)-5-oxo-1,2,4-triazol-1-yl]-5-fluoro-2-[(1S)-2,2,2-trifluoro-1-methyl-ethoxy]pyridine-3-carboxamide]
0.208	2.46	CCn1c(CO)nn(-c2nc(O[C@@H](C)C(F)(F)F)c(C(=O)Nc3c(Cl)n[nH]c3Cl)cc2F)c1=O [Example 123, N-(3,5-Dichloro-1H-pyrazol-4-yl)-6-[4-ethyl-3-(hydroxymethyl)-5-oxo-1,2,4-triazol-1-yl]-5-fluoro-2-[(1S)-2,2,2-trifluoro-1-methyl-ethoxy]pyridine-3-carboxamide]
> 100	108	CCn1c(CO)nn(-c2nc(O[C@@H](C)C(F)(F)F)c(C(=O)Nc3snc(C)c3Cl)cc2F)c1=O [Example 26, (S)-N-(4-Chloro-3-methylisothiazol-5-yl)-6-(4-ethyl-3-(hydroxymethyl)-5-oxo-4,5-dihydro-1H-1,2,4-triazol-1-yl)-5-fluoro-2-((1,1,1-trifluoropropan-2-yl)oxy)nicotinamide]
0.886	0.87	CCn1c(CO)nn(-c2nc(O[C@@H](C)C(F)(F)F)c(C(=O)Nc3c(C)ccnc3OC)cc2F)c1=O [Example 68, (S)-6-(4-Ethyl-3-(hydroxymethyl)-5-oxo-4,5-dihydro-1H-1,2,4-triazol-1-yl)-5-fluoro-N-(2-methoxy-4-methylpyridin-3-yl)-2-((1,1,1-trifluoropropan-2-yl)oxy)nicotinamide]
1.06	1.15	CCn1c(CF)nn(-c2nc(OC(C)C)c(C(=O)Nc3c(C)ccnc3Cl)cc2F)c1=O [Example 97, N-(2-Chloro-4-methyl-3-pyridyl)-6-[4-ethyl-3-(fluoromethyl)-5-oxo-1,2,4-triazol-1-yl]-5-fluoro-2-isopropoxy-pyridine-3-carboxamide]
1.47	0.369	CCn1c(CCl)nn(-c2nc(O[C@@H](C)C(F)(F)F)c(C(=O)Nc3c(F)cccc3Cl)cc2F)c1=O [Example 6, (S)-N-(2-Chloro-6-fluorophenyl)-6-(3-(chloromethyl)-4-ethyl-5-oxo-4,5-dihydro-1H-1,2,4-triazol-1-yl)-5-fluoro-2-((1,1,1-trifluoropropan-2-yl)oxy)nicotinamide]
46.5	5.7	CCn1c(CO)nn(-c2nc(O[C@@H](C)C(F)(F)F)c(C(=O)Nc3cc(C)cnc3Cl)cc2F)c1=O [Example 67, (S)-N-(2-Chloro-5-methylpyridin-3-yl)-6-(4-ethyl-3-(hydroxymethyl)-5-oxo-4,5-dihydro-1H-1,2,4-triazol-1-yl)-5-fluoro-2-((1,1,1-trifluoropropan-2-yl)oxy)nicotinamide]
52.4	6.4	CCn1c(CO)nn(-c2nc(O[C@@H](C)C(F)(F)F)c(C(=O)Nc3cc(C)cnc3C)cc2F)c1=O [Example 51, (S)-N-(2,5-Dimethylpyridin-3-yl)-6-(4-ethyl-3-(hydroxymethyl)-5-oxo-4,5-dihydro-1H-1,2,4-triazol-1-yl)-5-fluoro-2-((1,1,1-trifluoropropan-2-yl)oxy)nicotinamide]
1.83	0.852	CCn1c(CO)nn(-c2nc(O[C@@H](C)C(F)(F)F)c(C(=O)Nc3cnc(OC)cc3Cl)cc2F)c1=O [Example 50, (S)-N-(4-Chloro-6-methoxypyridin-3-yl)-6-(4-ethyl-3-(hydroxymethyl)-5-oxo-4,5-dihydro-1H-1,2,4-triazol-1-yl)-5-fluoro-2-((1,1,1-trifluoropropan-2-yl)oxy)nicotinamide]
16.5	14.1	CCn1c(CO)nn(-c2nc(O[C@@H](C)C(F)(F)F)c(C(=O)Nc3nc(C)ccc3F)cc2F)c1=O [Example 39, (S)-6-(4-Ethyl-3-(hydroxymethyl)-5-oxo-4,5-dihydro-1H-1,2,4-triazol-1-yl)-5-fluoro-N-(3-fluoro-6-methylpyridin-2-yl)-2-((1,1,1-trifluoropropan-2-yl)oxy)nicotinamide]
0.38	0.975	CCCn1c(CF)nn(-c2nc(O[C@@H](C)C(F)(F)F)c(C(=O)Nc3c(C)n[nH]c3Cl)cc2F)c1=O [Example 99, N-(5-Chloro-3-methyl-1H-pyrazol-4-yl)-5-fluoro-6-[3-(fluoromethyl)-5-oxo-4-propyl-1,2,4-triazol-1-yl]-2-[(1S)-2,2,2-trifluoro-1-methyl-ethoxy]pyridine-3-carboxamide]
> 100	58.6	CCn1c(CO)nn(-c2nc(O[C@@H](C)C(F)(F)F)c(C(=O)Nc3cc(C)cnc3F)cc2F)c1=O [Example 36, (S)-6-(4-Ethyl-3-(hydroxymethyl)-5-oxo-4,5-dihydro-1H-1,2,4-triazol-1-yl)-5-fluoro-N-(2-fluoro-5-methylpyridin-3-yl)-2-((1,1,1-trifluoropropan-2-yl)oxy)nicotinamide]
0.282	0.367	CCn1c(CO)nn(-c2nc(O[C@@H](C)C(F)(F)F)c(C(=O)Nc3c(Cl)cnc(OC)c3C)cc2F)c1=O [Example 110, N-(5-Chloro-2-methoxy-3-methyl-4-pyridyl)-6-[4-ethyl-3-(hydroxymethyl)-5-oxo-1,2,4-triazol-1-yl]-5-fluoro-2-[(1S)-2,2,2-trifluoro-1-methyl-ethoxy]pyridine-3-carboxamide]

The remaining lines, values behind:

SMILES	EC50 (MOLM-13 cells) [nM]	EC50 (human DHODH) [nM]
CCCn1c(CO)nn(-c2nc(O[C@@H](C)C(F)(F)F)c(C(=O)Nc3c(C)n[nH]c3Cl)cc2F)c1=O [Example 91, N-(5-Chloro-3-methyl-1H-pyrazol-4-yl)-5-fluoro-6-[3-(hydroxymethyl)-5-oxo-4-propyl-1,2,4-triazol-1-yl]-2-[(1S)-2,2,2-trifluoro-1-methyl-ethoxy]pyridine-3-carboxamide]	2.04	3.86
CCn1c(CO)nn(-c2nc(O[C@@H](C)C(F)(F)F)c(C(=O)Nc3ccccc3C)cc2F)c1=O [Example 120, 6-[4-Ethyl-3-(hydroxymethyl)-5-oxo-1,2,4-triazol-1-yl]-5-fluoro-N-(o-tolyl)-2-[(1S)-2,2,2-trifluoro-1-methyl-ethoxy]pyridine-3-carboxamide]	< 0.169	0.246
CCn1c(CO)nn(-c2nc(O[C@@H](C)C(F)(F)F)c(C(=O)Nc3cc(OC)ccc3F)cc2F)c1=O [Example 47, (S)-6-(4-Ethyl-3-(hydroxymethyl)-5-oxo-4,5-dihydro-1H-1,2,4-triazol-1-yl)-5-fluoro-N-(2-fluoro-5-methoxyphenyl)-2-((1,1,1-trifluoropropan-2-yl)oxy)nicotinamide]	6.9	13.5
CCn1c(CO)nn(-c2nc(O[C@@H](C)C(F)(F)F)c(C(=O)Nc3snc(C)c3Br)cc2F)c1=O [Example 31, (S)-N-(4-Bromo-3-methylisothiazol-5-yl)-6-(4-ethyl-3-(hydroxymethyl)-5-oxo-4,5-dihydro-1H-1,2,4-triazol-1-yl)-5-fluoro-2-((1,1,1-trifluoropropan-2-yl)oxy)nicotinamide]	> 100	233
CCn1c(CO)nn(-c2nc(O[C@@H](C)C(F)(F)F)c(C(=O)Nc3nc(OC)ccc3Cl)cc2F)c1=O [Example 21, (S)-N-(3-chloro-6-methoxypyridin-2-yl)-6-(4-ethyl-3-(hydroxymethyl)-5-oxo-4,5-dihydro-1H-1,2,4-triazol-1-yl)-5-fluoro-2-((1,1,1-trifluoropropan-2-yl)oxy)nicotinamide]	1.8	1.2
CCn1c(CO)nn(-c2nc(O[C@@H](C)C(F)(F)F)c(C(=O)Nc3cc(C)ccc3F)cc2F)c1=O [Example 11, (S)-6-(4-Ethyl-3-(hydroxymethyl)-5-oxo-4,5-dihydro-1H-1,2,4-triazol-1-yl)-5-fluoro-N-(2-fluoro-5-methylphenyl)-2-((1,1,1-trifluoropropan-2-yl)oxy)nicotinamide]	0.5	< 1.69
CCn1c(CO)nn(-c2nc(O[C@@H](C)C(F)(F)F)c(C(=O)Nc3c(F)cccc3Cl)cc2F)c1=O [Example 1, (S)-N-(2-Chloro-6-fluorophenyl)-6-(4-ethyl-3-(hydroxymethyl)-5-oxo-4,5-dihydro-1H-1,2,4-triazol-1-yl)-5-fluoro-2-((1,1,1-trifluoropropan-2-yl)oxy)nicotinamide]	0.156	0.237
CCn1c(CO)nn(-c2nc(O[C@@H](C)C(F)(F)F)c(C(=O)Nc3cc(OC)ncc3Cl)cc2F)c1=O [Example 98, N-(5-Chloro-2-methoxy-4-pyridyl)-6-[4-ethyl-3-(hydroxymethyl)-5-oxo-1,2,4-triazol-1-yl]-5-fluoro-2-[(1S)-2,2,2-trifluoro-1-methyl-ethoxy]pyridine-3-carboxamide]	41.6	91.4
CCn1c(CO)nn(-c2nc(O[C@@H](C)C(F)(F)F)c(C(=O)Nc3cnn(CCOC)c3)cc2F)c1=O [Example 63, (S)-6-(4-Ethyl-3-(hydroxymethyl)-5-oxo-4,5-dihydro-1H-1,2,4-triazol-1-yl)-5-fluoro-N-(1-(2-methoxyethyl)-1H-pyrazol-4-yl)-2-((1,1,1-trifluoropropan-2-yl)oxy)nicotinamide]	> 100	865
